From patent US5602153A, “Method of using 1-arylheteroarylalkyl substituted-1H-1,2,4-triazole compounds for treatment of a giaucoma disorder” (G.D. Searle & Co., priority 1993, dated 1997)
Read-outs that look alike come from different tables or passages of the source.

What was measured:
[1] = target: smooth muscle angiotensin II receptor; test: Assay A: Angiotensin II Binding Activity (displacement of 125I-AII, rat uterine membrane preparation); settings: rat uterine membranes, 25 °C, 60 min; read-out: IC50 (50% displacement of total specifically bound 125I-AII)
Protocol: Assay A: Anaiotensin II Binding Activity
Compounds of the invention were tested for ability to bind to the smooth muscle angiotensin II receptor using a rat uterine membrane preparation. Angiotensin II (AII) was purchased from Peninsula Labs. ^125 I-angiotensin II (specific activity of 2200 Ci/mmol) was purchased from Du Pont-New England Nuclear. Other chemicals were obtained from Sigma Chemical Co. This assay was carried out according to the method of Douglas et al [Endocrinology, 106, 120-124 (1980)]. Rat uterine membranes were prepared from fresh tissue. All procedures were carried out at 4° C. Uteri were stripped of fat and homogenized in phosphate-buffered saline at pH 7.4 containing 5 mM EDTA. The homogenate was centrifuged at 1500×g for 20 min., and the supernatant was recentrifuged at 100,000×g for 60 min. The pellet was resuspended in buffer consisting of 2 mM EDTA and 50 mM Tris-HCl (pH 7.5) to a final protein concentration of 4 mg/ml. Assay tubes were charged with 0.25 ml of a solution containing 5 mM MgCl2, 2 mM EDTA, 0.5% bovine serum albumin, 50 mM Tris-HCl, pH 7.5 and ^125 I-AII (approximately 10^5 cpm) in the absence or in the presence of unlabelled ligand. The reaction was initiated by the addition of membrane protein and the mixture was incubated at 25° C. for 60 min. The incubation was terminated with ice-cold 50 mM Tris-HDl (pH 7.5) and the mixture was filtered to separate membrane-bound labelled peptide from the free ligand. The incubation tube and filter were washed with ice-cold buffer. Filters were assayed for radioactivity in a Micromedic gamma counter. Nonspecific binding was defined as binding in the presence of 10 μM of unlabelled AII. Specific binding was calculated as total binding minus nonspecific binding. The receptor binding affinity of an AII antagonist compound was indicated by the concentration (IC50) of the tested AII antagonist which gives 50% displacement of the total specifically bound ^125 I-AII from the high affinity AII receptor. Binding data were analyzed by a nonlinear least-squares curve fitting program.

pressor response to AII = test: Assay C: In Vivo Intragastric Pressor Assay Response for AII Antagonists; parameters: species or system rat (male Sprague-Dawley); settings: 3 mg/kg i.g., rat, AII 30 ng/kg bolus; for inhibition in vivo at 3 mg/kg: po
Protocol: Assay C: In Vivo Intragastric Pressor Assay Response for AII Antagonists of the Invention
Male Sprague-Dawley rats weighing 225-300 grams were anesthetized with methohexital (30 mg/kg, i.p.) and catheters were implanted into the femoral artery and vein. The catheters were tunneled subcutaneously to exit dorsally, posterior to the head and between the scapulae. The catheters were filled with heparin (1000 units/ml of saline). The rats were returned to their cage and allowed regular rat chow and water ad libitum. After full recovery from surgery (3-4 days), rats were placed in Lucite holders and the arterial line was connected to a pressure transducer. Arterial pressure was recorded on a Gould polygraph (mmHg). Angiotensin II was administered as a 30 ng/kg bolus via the venous catheter delivered in a 50 μl volume with a 0.2 ml saline flush. The pressor response in mmHg was measured by the difference from pre-injectionarterial pressure to the maximum pressure achieved. The AII injection was repeated every 10 minutes until three consecutive injections yielded responses within 4 mmHg of each other. These three responses were then averaged and represented the control response to AII. The test compound was suspended in 0.5% methylcellulose in water and was administered by gavage. The volume administered was 2 ml/kg body weight. The standard dose was 3 mg/kg. Angiotensin II bolus injections were given at 30, 45, 60, 75, 120, 150, and 180 minutes after gavage. The pressor response to AII was measured at each time point. The rats were then returned to their cage for future testing. A minimum of 3 days was allowed between tests. Percent inhibition was calculated for each time point following gavage by the following formula: [(Control Response-Response at time point)/Control Response]×100.

rabbit aortic rings = target: T1, rabbit aortic rings (Oryctolagus cuniculus, UniProt P34976); test: Assay B: In Vitro Vascular Smooth Muscle-Response for AII (antagonist activity in rabbit aortic rings); assay type: cell-based, rabbit (male New Zealand white); settings: antagonist 10^-5 M for 5 min, AII challenge
T1 construct: The thoracic aorta was removed, cleaned of adherent fat and connective tissue; from tissue; host or cells: thoracic aorta rings, endothelium removed, male New Zealand white rabbit
T1 sequence (P34976 1-359): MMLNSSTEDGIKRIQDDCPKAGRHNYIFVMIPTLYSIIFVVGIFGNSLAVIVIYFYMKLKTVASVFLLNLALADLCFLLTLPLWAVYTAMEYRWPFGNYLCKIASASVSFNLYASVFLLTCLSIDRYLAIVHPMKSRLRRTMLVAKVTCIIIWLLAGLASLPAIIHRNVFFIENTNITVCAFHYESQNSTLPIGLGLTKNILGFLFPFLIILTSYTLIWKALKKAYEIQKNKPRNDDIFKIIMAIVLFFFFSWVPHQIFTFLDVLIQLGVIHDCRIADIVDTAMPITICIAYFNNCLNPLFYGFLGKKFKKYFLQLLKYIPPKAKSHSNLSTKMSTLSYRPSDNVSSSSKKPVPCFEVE
Protocol: Assay B: In Vitro Vascular Smooth Muscle-Response for AII The compounds of the invention were tested for antagonist activity in rabbit aortic rings. Male New Zealand white rabbits (2-2.5 kg) were sacrificed using an overdose of pentobarbital and exsanguinated via the carotid arteries. The thoracic aorta was removed, cleaned of adherent fat and connective tissue and then cut into 3-mm ring segments. The endothelium was removed from the rings by gently sliding a rolled-up piece of filter paper into the vessel lumen. The rings were then mounted in a water-jacketed tissue bath, maintained at 37° C., between moveable and fixed ends of a stainless steel wire with the moveable end attached to an FT03 Grass transducer coupled to a Model 7D Grass Polygraph for recording isometric force responses. The bath was filled with 20 ml of oxygenated (95% oxygen/5% carbon dioxide) Krebs solution of the following composition (mM): 130 NaCl, 15 NaHCO3, 15 KCl, 1.2 NaH2 PO4, 1.2 MgSO4, 2.5 CaCl2, and 11.4 glucose. The preparations were equilibrated for one hour before approximately one gram of passive tension was placed on the rings. Angiotensin II concentration-response curves were then recorded (3×10^-10 to 1×10^-5 M). Each concentration of AII was allowed to elicit its maximal contraction, and then AII was washed out repeatedly for 30 minutes before rechallenging with a higher concentration of AII. Aorta rings were exposed to the test antagonist at 10^-5 M for 5 minutes before challenging with AII. Adjacent segments of the same aorta ring were used for all concentration-response curves in the presence or absence of the test antagonist. The effectiveness of the test compound was expressed in terms of pA2 values and were calculated according to H.O. Schild [Br. J. Pharmacol. Chemother., 2, 189-206 (1947)]. The pA2 value is the concentration of the antagonist which increases the EC50 value for AII by a factor of two. Each test antagonist was evaluated in aorta rings from two rabbits.

angiotensin II receptor = settings: cited from earlier work; for angiotensin II antagonist activity: binding experiments, functional assays and in vitro / in vivo tests
[2] = first of two rabbits, read-out: pA2 (first value) (converted)
[3] = second of two rabbits, read-out: pA2 (converted)

| Compound | IC50 [1] [nM] | Duration (of inhibition of AII pressor response) (pressor response to AII) [min] | inhibition in vivo at 3 mg/kg (pressor response to AII) [%] | Kb (rabbit aortic rings; [2]) [nM] | Kb (rabbit aortic rings; [3]) [nM] | residual agonist activity (angiotensin II receptor) | angiotensin II antagonist activity (angiotensin II receptor) |
| --- | --- | --- | --- | --- | --- | --- | --- |
| CCCCc1nc(C(=O)N(C)C(C)(C)C)n(Cc2ccc(-c3ccccc3-c3nnn[nH]3)nc2)n1 [Example 18, 5-[2-[5-[[3-butyl-5-(N-methyl-N-tertbutylamido)-1H-1,2,4-triazol-1-yl)methyl]-2-pyridinyl]phenyl]-1H-tetrazole] | 4.1 | > 180 | 30 | 3.72 | 16.6 | – | – |
| CNCC(=O)N[C@@H](CCCN=C(N)N)C(=O)N[C@H](C(=O)N[C@@H](Cc1ccc(O)cc1)C(=O)N[C@H](C(=O)N[C@@H](Cc1cnc[nH]1)C(=O)N1CCC[C@H]1C(=O)N[C@@H](C)C(=O)O)C(C)C)C(C)C [Saralasin] | – | – | – | – | – | significant residual agonist activity | – |
| CCCCc1nc(-c2ccccc2Cl)nn1Cc1ccc(-c2ccccc2-c2nnn[nH]2)nc1 [Example 29, 5-[2-[5-[[3-(2-chlorophenyl)-5-butyl-1H-1,2,4-triazol-1-yl)methyl]-2-pyridinyl]phenyl]-1H-tetrazole] | 25 | > 180 | 25 | – | – | – | – |
| CCCCc1nc(-c2ccccc2Cl)n(Cc2ccc(-c3ccccc3-c3nnn[nH]3)nc2)n1 [Example 30, 5-[2-[5-[[3-butyl-5-(2-chlorophenyl)-1H-1,2,4-triazol-1-yl)methyl]-2-pyridinyl]phenyl]-1H-tetrazole] | 520 | – | 0 | – | – | – | – |
| CCCCc1nc(CC(C)(C)C)n(Cc2ccc(-c3ccccc3-c3nnn[nH]3)nc2)n1 [Example 12, 5-[2-[5-[(3-butyl-5-neopentyl-1H-1,2,4-triazol-1-yl)methyl]-2-pyridinyl]phenyl]-1H-tetrazole] | 43 | – | 0 | – | – | – | – |
| CCCCc1nc(Cl)c(CC(=O)O)n1Cc1ccccc1Cl [2-n-butyl-4-chloro-1-(2-chlorobenzyl)imidazole-5-acetic acid] | – | – | – | – | – | – | specific competitive angiotensin II antagonist activity |
| CCCCc1nc(CC(C)(C)C)nn1Cc1ccc(-c2ccccc2-c2nnn[nH]2)nc1 [Example 11, 5-[2-[5-[[3-neopentyl-5-butyl-1H-1,2,4-triazol-1-yl)methyl]-2-pyridinyl]phenyl]-1H-tetrazole] | 4.4 | > 180 | 20 | – | – | – | – |
| CCCCc1nc(Cl)c(CC(=O)O)n1Cc1ccccc1[N+](=O)[O-] [2-butyl-4-chloro-1-(2-nitrobenzyl)imidazole-5-acetic acid] | – | – | – | – | – | – | specific competitive angiotensin II antagonist activity |
| CCCCc1nc(C(F)(F)CCC)n(Cc2ccc(-c3ccccc3-c3nnn[nH]3)nc2)n1 [Example 10, 5-[2-[5-[[3-butyl-5-(1,1-difluorobutyl)-1H-1,2,4-triazol-1-yl)methyl]-2-pyridinyl]phenyl]-1H-tetrazole] | 20 | – | 10 | 20.9 | 31.6 | – | – |
| CCCCc1nc(C(F)(F)CCC)nn1Cc1ccc(-c2ccccc2-c2nnn[nH]2)nc1 [Example 9, 5-[2-[5-[[3-(1,1-difluorobutyl)-5-butyl-1H-1,2,4-triazol-1-yl)methyl]-2-pyridinyl]phenyl]-1H-tetrazole] | 9.4 | 180 | 20 | 5.5 | 3.89 | – | – |
| CCCCc1nc(C(=O)N(C)C(C)(C)C)nn1Cc1ccc(-c2ccccc2-c2nnn[nH]2)nc1 [Example 17, 5-[2-[5-[[3-(N-methyl-N-tertbutylamido)-5-butyl-1H-1,2,4-triazol-1-yl)methyl]-2-pyridinyl]phenyl]-1H-tetrazole] | 12 | > 180 | 20 | 24.5 | 34.7 | – | – |
